Experimental findings from patent USRE46856E1, “Substituted 2,3-dihydroimidazo[1,2-c]quinazoline derivatives useful for treating hyper-proliferative disorders and diseases associated with angiogenesis” (Bayer Intellectual Property GmbH, priority 2006, dated 2018) are described below.

Counter-ions that a name gives are not always drawn.

The test relates to IGF-1 induced AKT phosphorylation in A549 cells. Briefly: IGF-1 induced AKT phosphorylation assay (A549 cell assay). It counts as cell-based. Conditions: Homo sapiens; A549 cells, 25 ng/ml IGF-1, phospho-AKT(Ser 473); read-out: average IC50 in the A549 cell assay. An excerpt: [Determination of IC50 Values of Compounds in Cell Based Assays of PI3K Activity] 96-well collagen treated clear bottom/black sided Costar plates were purchased from CORNING LIFE SCIENCES (Corning, N.Y.; at.#3904). Gibco RPMI medium (Cat.#11875), Biosource anti-phospho-AKT([…]) antibody (Cat.#44-621G) and recombinant IGF-1 (Cat.#PHG0074) were purchased from INVITROGEN (Carlsbad, Calif.). The secondary donkey anti-rabbit IgG horse radish peroxidase conjugate (Cat. #N[…]) and ECL chemiluminesence reagent (Cat.#RPN2209) were purchased from […] (Buckinghamshire, UK). Cell culture tested bovine serum albumin solution (35% in DPBS; Cat.#A7979) and all other chemicals were purchased from SIGMA (St. Louis, Mo.). The Wallac Victor2 1420 Multilabel HTS Counter was purchased from […] (Wellesley, Mass.) […] All wells (except no IGF-1 controls) were then treated with 25 ng/ml IGF-1 for 10 minutes at 37° C. in a 5% CO2 incubator. Following removal of the supernatants and washing with the wells with TBS (50 mM Tris pH 8.0 containing 138 mM NaCL and 27 mM KCl), 200 µL of 3.7% formaldehyde in TBS was added to each well, and the plate was incubated at 4° C. for 10 minutes. Supernatants were once again removed and replaced with 50 μL Methanol (-20° C.) and the plate incubated at 4° C. for 5 minutes. 200 μL of 0.1% BSA in TBS was then added to each well and the plate incubated at room temperature for 1⁄2 hour. Supernatants were removed and 50 μL of a solution comprising the primary anti-phospho-AKT([…]) antibody diluted 1:250 in TBS containing 0.1% BSA was added to each well (except control/background wells). The plate was then incubated for 11⁄2 hour at room temperature. Supernatants were removed, each well was washed 3 times with 200 μL TBS, and 100 μL of a solution containing the secondary donkey anti-rabbit IgG antibody HRP-conjugate diluted 1:100 in TBS-T (TBS containing 0.1% triton). Plates were then incubated for 1 hour at room temperature. After removing the secondary antibody, each well was washed 6 times with cold TBS-T, 100 μL of ECL was added to each well, and the plate was placed on an orbital shaker for 1 minute. The plates were then read on a Wallac Victor2 1420 Multilabel HTS Counter using the luminometry window (maximum light detection is measured at […]). IC50 values were determined from the inhibition curve.
For `COc1c(OCCN(C)C)ccc2c1N=C(NC(=O)c1cccnc1)N1CCN=C21` [Example 89, N-{8-[2-(dimethylamino)ethoxy]-7-methoxy-2,3-dihydroimidazo[1,2-c]quinazolin-5-yl}nicotinamide], the IC50 lay within 100 to 1000 nM.

For the compound `COc1c(OCCN2CCCC2)ccc2c1N=C(NC(=O)c1cccnc1)N1CCN=C21` [Example 75, N-[7-methoxy-8-(2-pyrrolidin-1-ylethoxy)-2,3-dihydroimidazo[1,2-c]quinazolin-5-yl]nicotinamide], the IC50 is below 100 nM.

Turning to `COc1c(OCCCN2CCOCC2)ccc2c1N=C(NC(=O)c1sc(C)nc1C)N1CCN=C21` [Example 94, N-[7-methoxy-8-(3-morpholin-4-ylpropoxy)-2,3-dihydroimidazo[1,2-c]quinazolin-5-yl]-2,4-dimethyl-1,3-thiazole-5-carboxamide], the IC50 is below 100 nM.

Consider `CCNC(=O)Nc1ccc(C(=O)NC2=Nc3c(ccc(OCCCN4CCOCC4)c3OC)C3=NCCN23)cn1` [Example 77, 6-{[(ethylamino)carbonyl]amino}-N-[7-methoxy-8-(3-morpholin-4-ylpropoxy)-2,3-dihydroimidazo[1,2-c]quinazolin-5-yl]nicotinamide], for which the IC50 is below 100 nM.

Consider `COc1cncc(C(=O)NC2=Nc3c(ccc(OCCCN4CCOCC4)c3OC)C3=NCCN23)c1` [Example 100, 5-methoxy-N-[7-methoxy-8-(3-morpholin-4-ylpropoxy)-2,3-dihydroimidazo[1,2-c]quinazolin-5-yl]nicotinamide], for which the IC50 lay in the range of 100 to 1000 nM.

In the case of `COc1c(OCCCN(C)C)ccc2c1N=C(NC(=O)c1cnc(N)s1)N1CCN=C21` [Example 37, 2-amino-N-{8-[3-(dimethylamino)propoxy]-7-methoxy-2,3-dihydroimidazo[1,2-c]quinazolin-5-yl}-1,3-thiazole-5-carboxamide], the IC50 is below 100 nM.

For the compound `CNCCCOc1ccc2c(c1OC)N=C(NC(=O)c1cccnc1)N1CCN=C21` [Example 58, N-{7-methoxy-8-[3-(methylamino)propoxy]-2,3-dihydroimidazo[1,2-c]quinazolin-5-yl}nicotinamide], the IC50 was 100 to 1000 nM.

In the case of `CCCc1nc(N)ncc1C(=O)NC1=Nc2c(ccc(OCCCN3CCOCC3)c2OC)C2=NCCN12` [Example 7, 2-amino-N-[7-methoxy-8-(3-morpholin-4-ylpropoxy)-2,3-dihydroimidazo[1,2-c]quinazolin-5-yl]-4-propylpyrimidine-5-carboxamide], the IC50 is below 100 nM.

For `COc1c(OCCCN(C)C)ccc2c1N=C(NC(=O)c1ccc(N)nc1)N1CCN=C21` [Example 46, 6-amino-N-{8-[3-(dimethylamino)propoxy]-7-methoxy-2,3-dihydroimidazo[1,2-c]quinazolin-5-yl}nicotinamide], the IC50 was below 100 nM.

For the compound `CNC(=O)Nc1nc(C(=O)NC2=Nc3c(ccc(OCCCN4CCOCC4)c3OC)C3=NCCN23)cs1` [Example 65, N-[7-methoxy-8-(3-morpholin-4-ylpropoxy)-2,3-dihydroimidazo[1,2-c]quinazolin-5-yl]-2-{[(methylamino)carbonyl]amino}-1,3-thiazole-4-carboxamide], the IC50 is above 1000 nM.

In the case of `COc1c(OCCCN2CCOCC2)ccc2c1N=C(NC(=O)c1ccc(C)nc1)N1CCN=C21` [Example 101, N-[7-methoxy-8-(3-morpholin-4-ylpropoxy)-2,3-dihydroimidazo[1,2-c]quinazolin-5-yl]-6-methylnicotinamide], the IC50 is below 100 nM.

For `COc1c(OCCCN2CCOCC2)ccc2c1N=C(NC(=O)c1cnc(N)s1)N1CCN=C21` [Example 4, 2-amino-N-[7-methoxy-8-(3-morpholin-4-ylpropoxy)-2,3-dihydroimidazo[1,2-c]quinazolin-5-yl]-1,3-thiazole-5-carboxamide], the IC50 fell in the range of 100 to 1000 nM.

For the compound `COc1c(OCCN(C)C)ccc2c1N=C(NC(=O)c1ccc(C)nc1)N1CCN=C21` [Example 70, N-{8-[2-(dimethylamino)ethoxy]-7-methoxy-2,3-dihydroimidazo[1,2-c]quinazolin-5-yl}-6-methylnicotinamide], the IC50 was below 100 nM.

For `COc1c(OCCCN2CCOCC2)ccc2c1N=C(NC(=O)c1cnc(NCCN(C)C)nc1)N1CCN=C21` [Example 45, 2-{[2-(dimethylamino)ethyl]amino}-N-[7-methoxy-8-(3-morpholin-4-ylpropoxy)-2,3-dihydroimidazo[1,2-c]quinazolin-5-yl]pyrimidine-5-carboxamide], the IC50 lay in the range of 100 to 1000 nM.

`COc1c(OCCCN2CCOCC2)ccc2c1N=C(NC(=O)c1ccc(N3CC[C@@H](N)C3)nc1)N1CCN=C21` [Example 52, 6-[(3R)-3-aminopyrrolidin-1-yl]-N-[7-methoxy-8-(3-morpholin-4-ylpropoxy)-2,3-dihydroimidazo[1,2-c]quinazolin-5-yl]nicotinamide hydrochloride]: the IC50 is below 100 nM.

In the case of `COc1c(OCCCN2CCN(C)CC2)ccc2c1N=C(NC(=O)c1cccnc1)N1CCN=C21` [Example 64, N-{7-methoxy-8-[3-(4-methylpiperazin-1-yl)propoxy]-2,3-dihydroimidazo[1,2-c]quinazolin-5-yl}nicotinamide], the IC50 fell in the range of 100 to 1000 nM.

With `COc1c(OCC2CNCCO2)ccc2c1N=C(NC(=O)c1cccnc1)N1CCN=C21` (stereo not drawn) [Example 35, N-[7-methoxy-8-(morpholin-2-ylmethoxy)-2,3-dihydroimidazo[1,2-c]quinazolin-5-yl]nicotinamide], the IC50 was below 100 nM.

Regarding `COc1c(OCCCN2CCOCC2)ccc2c1N=C(NC(=O)c1cccnc1)N1CCN=C21` [Example 103, N-[7-methoxy-8-(3-morpholin-4-ylpropoxy)-2,3-dihydroimidazo[1,2-c]quinazolin-5-yl]nicotinamide], the IC50 is below 100 nM.

Regarding `COc1c(OCCCN(C)C)ccc2c1N=C(NC(=O)c1cccnc1)N1CCN=C21` [Example 88, N-{8-[3-(dimethylamino)propoxy]-7-methoxy-2,3-dihydroimidazo[1,2-c]quinazolin-5-yl}nicotinamide], the IC50 lay within 100 to 1000 nM.

`COc1c(OCCCN(C)C)ccc2c1N=C(NC(=O)c1cnc(N)nc1)N1CCN=C21` [Example 42, 2-amino-N-{8-[3-(dimethylamino)propoxy]-7-methoxy-2,3-dihydroimidazo[1,2-c]quinazolin-5-yl}pyrimidine-5-carboxamide]: the IC50 is below 100 nM.

As for `COc1c(OCCN2CCOCC2)ccc2c1N=C(NC(=O)c1cccnc1)N1CCN=C21` [Example 68, N-[7-methoxy-8-(2-morpholin-4-ylethoxy)-2,3-dihydroimidazo[1,2-c]quinazolin-5-yl]nicotinamide], the IC50 was below 100 nM.

Consider `COCCNc1ccc(C(=O)NC2=Nc3c(ccc(OCCCN4CCOCC4)c3OC)C3=NCCN23)cn1` [Example 55, 6-[(2-methoxyethyl)amino]-N-[7-methoxy-8-(3-morpholin-4-ylpropoxy)-2,3-dihydroimidazo[1,2-c]quinazolin-5-yl]nicotinamide], for which the IC50 is 100 to 1000 nM.

`COc1c(OCCCN2CCOCC2)ccc2c1N=C(NC(=O)c1ccc(N)nc1C)N1CCN=C21` [Example 31, 6-amino-N-[7-methoxy-8-(3-morpholin-4-ylpropoxy)-2,3-dihydroimidazo[1,2-c]quinazolin-5-yl]-2-methyl nicotinamide]: the IC50 is below 100 nM.

Turning to `COc1c(OCCN(C)C)ccc2c1N=C(NC(=O)c1sc(C)nc1C)N1CCN=C21` [Example 69, N-{8-[2-(dimethylamino)ethoxy]-7-methoxy-2,3-dihydroimidazo[1,2-c]quinazolin-5-yl}-2,4-dimethyl-1,3-thiazole-5-carboxamide], the IC50 was below 100 nM.

Turning to `COc1c(OCCCN2CCCCC2)ccc2c1N=C(NC(=O)c1cccnc1)N1CCN=C21` [Example 74, N-[7-methoxy-8-(3-piperidin-1-ylpropoxy)-2,3-dihydroimidazo[1,2-c]quinazolin-5-yl]nicotinamide], the IC50 was below 100 nM.

For the compound `COc1c(OCCCN2CCOCC2)ccc2c1N=C(NC(=O)c1cnccn1)N1CCN=C21` [Example 81, N-[7-methoxy-8-(3-morpholin-4-ylpropoxy)-2,3-dihydroimidazo[1,2-c]quinazolin-5-yl]pyrazine-2-carboxamide], the IC50 was above 1000 nM.

Take `COc1c(OCCN)ccc2c1N=C(NC(=O)c1cccnc1)N1CCN=C21` [Example 82, N-[8-(2-aminoethoxy)-7-methoxy-2,3-dihydroimidazo[1,2-c]quinazolin-5-yl]nicotinamide]: the IC50 lay in the range of 100 to 1000 nM.
